Read-outs that look alike come from different tables or passages of the source.
Assays:
Fgfr2 [1] = test: Gene expression of Fgfr2 in MXT tumours, real-time PCR; format: in vivo, mice; conditions: for Real-time regulation ZK-PRA NR versus vehicle control / Real-time regulation ZK-PRA R versus vehicle control: Fgfr2; for Real-time regulation ZK-PRA NR versus vehicle control: non-responder tumours; for Real-time regulation ZK-PRA R versus vehicle control: responder tumours
Procedure: (§1) For further gene expression studies, the RNA of selected tumours was isolated and analysed further by GeneChip analyses and real-time PCR:
(§2) The five largest tumours from the vehicle control group were selected.
(§3) A limit was set in the ovariectomized group and that treated with 11β-(4-acetyl-phenyl)-17β-hydroxy-17α-(1,1,2,2,2-pentafluoroethyl)estra-4,9-dien-3-one: tumours having a weight higher than 100 mg were assessed as non-responders, and tumours with a weight less than 100 mg were classified as responders.
(§4) Exactly as in Test 1, the limit for response to the therapy and the non-response was set here at a tumour weight of 100 mg. The five largest tumours were selected from the control group. The RNA was isolated from the tumours, and gene expression of the biomarker candidates was determined.

MXT-M3 tumour = MXT-M3 tumour model in mice, tumour weight at end of test; format: in vivo
Text: For the test, an MXT-M3 tumour which was no longer strictly hormone-dependent was transplanted into mice.
The MXT(+) tumour model was induced in C57BLxDBA2F1 mice by intraperitoneal administration of a urethane solution. The developing mammary tumour could be transplanted further to mice with the same genetic background (syngeneic) and is still an established model. The MXT(+) model is distinguished very particularly by the fact that the tumours express both ER and PR in physiological concentrations. Although there are other hormone receptor-positive tumour models, frequently ER and PR are not functional therein and show no translocation from the cytoplasm into the nucleus after stimulation. Nor is it possible to show growth inhibition by hormone ablation here. These models are unsuitable for investigating antihormonal substances (Watson, Medina et al. 1977).
At the end of the test, the animals were sacrificed and the tumours were removed, and then the weight of the tumours was determined. The variation in the tumour weights is high in each group. The average tumour weights in the vehicle control group (427 mg) was 2.8 times higher than in the ovariectomized group (155 mg) and 2.2 times as high as in the group treated with 11β-(4-acetylphenyl)-17β-hydroxy-17α-(1,1,2,2,2-pentafluoroethyl)estra-4,9-dien-3-one (192 mg).
as §3
It was possible in the investigation of the tumour RNA of the in vivo experiment from Example 1 to identify biomarker candidates. To confirm these potential candidates, an independent animal experiment was carried out with the same study design, increasing the number of animals from ten to 20 per group. At the end of the test, the tumours were removed, the tumour weight was determined and the tumours were stored at −80° C. until RNA was isolated. The results are depicted in FIG. 2/5.
as §4

T47-D cells = test: Proliferation assay of T47-D cells with and without FGF7; format: cell-based, human; conditions: for growth (of maximum control): 10^−11 mol/l; for inhibition at 10 µM: 10^−5 mol/l
Procedure: The influence of FGF7 on the activity of 11β-(4-acetylphenyl)-17β-hydroxy-17α-(1,1,2,2,2-pentafluoroethyl)estra-4,9-dien-3-one was investigated on T47-D cells. […] 50 ng/ml FGF7 were added to the medium, and the activity of ZK-PRA was determined in a proliferation assay.
It was thus possible to inhibit growth by 58% through withdrawal of E2.
T47-D cells proliferate only in the presence of E2, so that E2 ablation serves as check of maximum growth inhibition. In the proliferation test without Fgf7 it was thus possible to achieve a maximum inhibition of almost 60%. On addition of Fgf7 to the medium, the effect was substantially smaller and the inhibition was now only 29%. Fgf7 thus downregulates not only ER and PR, so that the target for antiestrogens and antiprogestagens is lost, but additionally acts per se as growth factor, so that antihormonal effects or ablation of hormones are compensated. Fgf7 is a potent biomarker candidate. […] This was confirmed in an independent, second in vivo experiment. Fgf7 is a unidirectional, paracrine factor which has a local effect, but is nevertheless secreted, so that investigation is required of whether an elevated Fgf7 serum level possibly correlates with a non-response to treatment with 11β-(4-acetylphenyl)-17β-hydroxy-17α-(1,1,2,2,2-pentafluoroethyl)-estra-4,9-dien-3-one.

progesterone receptor = molecular target: T1, progesterone receptor (Homo sapiens, UniProt P06401); conditions: Fuhrmann et al., J. Med. Chem. 2000; cited from earlier work
T1 sequence (P06401 1-933): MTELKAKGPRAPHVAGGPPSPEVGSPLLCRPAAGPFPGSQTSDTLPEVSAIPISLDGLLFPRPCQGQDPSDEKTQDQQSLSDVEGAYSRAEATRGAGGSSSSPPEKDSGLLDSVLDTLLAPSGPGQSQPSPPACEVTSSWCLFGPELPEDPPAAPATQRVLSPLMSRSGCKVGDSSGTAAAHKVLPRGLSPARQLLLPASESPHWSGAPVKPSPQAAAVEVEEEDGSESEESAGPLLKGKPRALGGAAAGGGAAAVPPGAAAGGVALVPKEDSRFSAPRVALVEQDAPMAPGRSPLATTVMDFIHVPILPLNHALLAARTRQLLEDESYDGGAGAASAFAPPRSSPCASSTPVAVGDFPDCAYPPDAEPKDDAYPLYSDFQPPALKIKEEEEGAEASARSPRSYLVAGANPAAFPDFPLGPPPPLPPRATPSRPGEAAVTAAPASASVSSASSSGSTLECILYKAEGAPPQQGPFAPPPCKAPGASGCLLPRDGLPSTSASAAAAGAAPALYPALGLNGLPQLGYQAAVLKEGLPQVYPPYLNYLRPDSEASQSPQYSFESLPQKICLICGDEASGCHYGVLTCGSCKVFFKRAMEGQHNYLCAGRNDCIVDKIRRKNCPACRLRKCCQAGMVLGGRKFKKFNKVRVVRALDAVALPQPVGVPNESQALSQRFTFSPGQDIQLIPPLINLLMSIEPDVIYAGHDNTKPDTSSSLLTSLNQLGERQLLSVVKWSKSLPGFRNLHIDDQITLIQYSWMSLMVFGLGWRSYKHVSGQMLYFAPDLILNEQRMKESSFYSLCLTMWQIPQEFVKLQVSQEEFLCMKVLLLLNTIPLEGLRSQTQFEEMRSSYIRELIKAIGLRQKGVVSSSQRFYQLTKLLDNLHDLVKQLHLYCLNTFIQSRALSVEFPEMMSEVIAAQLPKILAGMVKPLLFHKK

Fgfr2 [2] = test: Relative expression of Fgfr2 versus 18S rRNA in model cell lines; format: cell-based, human
Text: Relative Expression of Fgfr2 Versus 18S rRNA in 6 Model Cell Lines […]
Expression of the receptor for fibroblast growth factor 7 (Fgf7) was not regulated in the sensitive T47-D cells on treatment with ZK-PRA (1.1 times higher on treatment with ZK-PRA). Expression in the ZK-PRA-resistant T47-D without treatment was twice as high as in the sensitive T47-D cells and declined somewhat with ZK-PRA treatment to 1.3 times the value of the untreated sensitive T47-D cells. Expression in all other cells was considerably less both in normal medium and on treatment with ZK-PRA: […]

Fgf7 [3] = test: Gene expression of Fgf7 in MXT tumours, real-time PCR; format: in vivo, mice; conditions: for Real-time regulation ZK-PRA NR versus vehicle control / Real-time regulation ZK-PRA R versus vehicle control: Fgf7; for Real-time regulation ZK-PRA NR versus vehicle control: non-responder tumours; for Real-time regulation ZK-PRA R versus vehicle control: responder tumours
Procedure: as §1, §2, §3, §4

Fgf7 [4] = test: Gene expression of Fgf7 in MXT tumours, GeneChip (Affymetrix) analysis; format: in vivo, mice; conditions: Example 1, non-responders (>100 mg) vs responders (<100 mg)
Procedure: as §1, §2, §3

MCF-7 cells = conditions: recombinant Fgf7 added to the culture medium, Chang et al. 2006; cited from earlier work
[5] = tested on: progesterone receptor (PR-A, PR-B) in T47-D cells; test: Western blot analysis of the progesterone receptor under the influence of FGF7; format: cell-based, human; conditions: Fgf7 20 and 50 ng/ml, 24 h and 72 h
Procedure: It is reported in the literature that FGF7 downregulates both ER and PR. In order to detect this effect, cells were incubated in medium with various amounts of FGF7 for 24 h and 72 h, and then the PR content was determined.

Molecule: CC(=O)c1ccc([C@H]2C[C@@]3(C)[C@@H](CC[C@@]3(O)C(F)(F)C(F)(F)F)[C@@H]3CCC4=CC(=O)CCC4=C32)cc1 [ZK-PRA, 11β-(4-acetylphenyl)-17β-hydroxy-17α-(1,1,2,2,2-pentafluoroethyl)estra-4,9-dien-3-one]
- Fgfr2 expression, non-responders vs. control (Fgfr2 [1]; Example 1): 55%
- Fgfr2 expression, responder tumours vs. control (Fgfr2 [1]; Example 1): 30%
- Real-time regulation ZK-PRA NR versus vehicle control (Fgfr2 [1]; Example 1): 0.55 (±0.30)
- Real-time regulation ZK-PRA R versus vehicle control (Fgfr2 [1]; Example 1): 0.30 (±0.07)
- Real-time regulation ZK-PRA NR versus vehicle control (Fgfr2 [1]; Example 2 confirmation): 0.25 (±0.20)
- Real-time regulation ZK-PRA R versus vehicle control (Fgfr2 [1]; Example 2 confirmation): 0.47 (±0.34)
- average tumour weight (MXT-M3 tumour; Example 1, treated group, end of test): 192 mg
- average tumour weight of vehicle control group relative to treated group (MXT-M3 tumour; Example 1, vehicle 427 mg): 2.2 times
- average tumour weight (MXT-M3 tumour; Example 2 confirmation experiment, treated group): 215 mg
- average tumour weight of vehicle control group relative to treated group (MXT-M3 tumour; Example 2 confirmation experiment, vehicle 577 mg): 2.7 times
- growth (of maximum control) (T47-D cells; FGF7 50 ng/ml): 114%
- growth (of maximum control) (T47-D cells; without FGF7): 114%
- maximum growth inhibition (T47-D cells; Fgf7 50 ng/ml in the culture medium, no dose-response relation): about 20%
- inhibition at 10 µM (T47-D cells; Homo sapiens, T47D, FGF7 50 ng/ml in the medium, read-out: growth inhibition): 24%
- inhibition at 10 µM (T47-D cells; Homo sapiens, T47D, without FGF7, maximum control (E2) = 100%, read-out: growth inhibition): 42%
- inhibition at 1 µM (T47-D cells; Homo sapiens, T47D, 10^−6 mol/l, without FGF7, read-out: growth inhibition): 47%
- inhibition at 0.1 µM (T47-D cells; Homo sapiens, T47D, 10^−7 mol/l, without FGF7, read-out: growth inhibition): 50%
- growth inhibition (T47-D cells; next lower concentration after 10^−5 mol/l, FGF7 50 ng/ml): 18%
- activity in the proliferation assay (T47-D cells; sensitive T47-D cells, without FGF7): good activity
- antiprogestational activity (progesterone receptor): high antiprogestational activity
- Fgfr2 mRNA on treatment compared with untreated T47-D cells (Fgfr2 [2]; BT-474 cells): 37 times lower
- Fgfr2 mRNA on treatment compared with untreated sensitive T47-D cells (Fgfr2 [2]; MCF-7 cells): 153 times lower
- Fgfr2 expression on treatment relative to untreated sensitive T47-D cells (Fgfr2 [2]; ZK-PRA-resistant T47-D cells): 1.3 times
- Fgfr2 expression on treatment compared with T47-D under normal conditions (Fgfr2 [2]; ZR75-1 cells): 9.4 times lower
- Fgfr2 expression on treatment relative to untreated (Fgfr2 [2]; sensitive T47-D cells): 1.1 times higher
- Fgf7 expression in non-responder tumours relative to vehicle controls (Fgf7 [3]; Example 1): 3.12 times
- Fgf7 expression in responder tumours compared with the controls (Fgf7 [3]; Example 1): 70%
- Real-time regulation ZK-PRA NR versus vehicle control (Fgf7 [3]; Example 1): 3.12 (±0.68)
- Real-time regulation ZK-PRA R versus vehicle control (Fgf7 [3]; Example 1): 0.69 (±0.38)
- Real-time regulation ZK-PRA NR versus vehicle control (Fgf7 [3]; Example 2 confirmation): 3.25 (±1.91)
- Real-time regulation ZK-PRA R versus vehicle control (Fgf7 [3]; Example 2 confirmation): 1.72 (±0.68)
- Affymetrix regulation ZK-PRA NR versus ZK-PRA R (Fgf7 [4]): 2.30 (±0.33)

Molecule: CC/C(=C(\c1ccccc1)c1ccc(OCCN(C)C)cc1)c1ccccc1 [tamoxifen]
- activity in proliferation tests (MCF-7 cells): no activity

B1: Fgf7: Fibroblast growth factor 7, secreted glycoprotein; recombinant Fgf7 added to culture medium (protein, UniProt P21781 32-194, looked up)
Fibroblast growth factor 7: CNDMTPEQMATNVNCSSPERHTRSYDYMEGGDIRVRRLFCRTQWYLRIDKRGKVKGTQEMKNNYNIMEIRTVAVGIVAIKGVESEFYLAMNKEGKLYAKKECNEDCNFKELILENHYNTYASAKWTHNGGEMFVALNQKGIPVRGKKTKKEQKTAHFLPMAIT
- amount of PR (Western blot) [5]: distinct decrease in PR
